# Columns and labels:
# [1] = test system: human bone marrow-derived mesenchymal stem cells; assay: Cell viability of mesenchymal stem cells under glucose deprivation (microscopy); format: cell-based; conditions: glucose-free medium, 3 μM apicidin (12 mM lactic acid in AC/Lac12)
# Experimental: To confirm the status changes of mesenchymal stem cells in glucose deprivation conditions, an existing culture medium was replaced with a glucose-free medium, and then cells were observed after a certain period of time. At this time, cells treated with glucose or lactic acid (the case of cells incubated in a glucose-free medium, the case of cells incubated in a glucose-free medium containing lactic acid, the case of cells incubated in a glucose-free medium containing apicidin, or the case of cells incubated in a glucose-free medium containing lactic acid and apicidin) were observed, and the results are shown in FIG. 1.
# First, mesenchymal stem cells were cultured in a 6-well plate filled with high glucose DMEM (4 mM L-glutamine, 4500 mg/L glucose, sodium pyruvate, 10% FBS, 100 U/ml penicillin, 100 μg/ml streptomycin) for one day. After culture, the high glucose DMEM was removed, the mesenchymal stem cells were washed twice with a sterile phosphate-saline buffer solution, and a glucose-free medium was added to the mesenchymal stem cells. At this time, the case of cells incubated in a glucose-free medium, the case of cells incubated in a glucose-free medium containing 3 μM apicidin, and the case of cells incubated in a glucose-free medium containing 3 μM apicidin and 12 mM lactic acid are denoted as Veh, AC, and AC/Lac12, respectively. At 4, 7, 20, and 27 hours after incubation, the morphology of the cells was observed under a microscope and images were obtained.
# To evaluate the effect of a culture medium on differentiation of mesenchymal stem cells into cardiomyocytes, as described in Example 1-2, mesenchymal stem cells were incubated in a glucose-free medium, in a glucose-free medium containing apicidin, or a glucose-free medium containing apicidin and lactic acid, and cell viability was determined.
# [2] = test system: mesenchymal stem cells; assay: qRT-PCR of cardiomyocyte-specific marker genes (GATA4, Nkx2.5, cTnI); format: cell-based, human; conditions: glucose deprivation
# Experimental: To determine the degree of differentiation of mesenchymal stem cells into cardiomyocytes by addition of apicidin and lactic acid under glucose deprivation conditions, the expression levels of cardiomyocyte-specific genes were quantitatively analyzed in the cells. More specifically, as in the method of Example 1-2, mesenchymal stem cells were incubated in each of the media for 4 or 20 hours. After incubation, the medium was removed from each sample, followed by washing once with PBS. Then, the mesenchymal stem cells were treated with TRIzol and incubated at room temperature for 10 minutes for cell lysis, and then chloroform was added thereto, followed by centrifugation. A supernatant obtained as a result of centrifugation was recovered, and total RNA was extracted. cDNA was synthesized from the total RNA using a reverse transcriptase (MMLV). Real-time PCR was performed using the synthesized cDNA as a template using a QuantiTect SYBR Green PCR kit to determine the expression levels of cardiomyocyte-specific marker genes (GATA4, Nkx2.5, and cTnI).
# Changes in cardiomyocyte-specific gene expression by addition of apicidin or apicidin and lactic acid under glucose deprivation conditions were quantified by RT-PCR according to the method of Example 1-3.
# [3] = test system: mesenchymal stem cells; assay: Immunocytochemistry of cardiomyocyte-specific marker proteins (GATA4, cTnI); format: cell-based, human; conditions: glucose deprivation, 4 hours, immunofluorescent staining
# Experimental: To confirm the expression of cardiomyocyte-specific marker proteins, immunocytochemistry was performed. First, mesenchymal stem cells were inoculated into a 12-well plate filled with a high glucose DMEM medium and cultured for 1 day. Then, the mesenchymal stem cells were incubated into a glucose-free medium (Veh), a glucose-free medium containing apicidin (AC), or a glucose-free medium containing apicidin and lactic acid (AC/Lac) for 4 hours. After incubation, the cell culture medium was removed from each sample, the mesenchymal stem cells were washed once with PBS, and subsequently the cells were fixed with 3.7% formaldehyde for 15 minutes, followed by treatment with 0.1% Triton X-100 for cell permeabilization. Normal goat serum was added and incubated for 1 hour to reduce background noise. Primary antibodies such as anti-GATA4 antibodies, anti-cTnI antibodies or anti-alpha-sarcomeric actin (a-SA) antibodies were added to the samples, followed by incubation at 4° C. overnight. Then, secondary antibodies labeled with a fluorescent dye (Alexa 488 or Alexa 594) were added, followed by incubation for 1 hour. Nuclei were stained with 4′,6-diamidino-2-phenylindole (DAPI), a fluorescent dye. The samples were mounted on slide glass for observation using a fluorescence microscope. […]
substance,measurement,setting,value
apicidin,cell death,[1]; 7 hours,cell death was not observed
same,cell death,[1]; 20 hours,partial cell death was observed
same,cell death,[1]; 27 hours,cell death was significantly observed
same,"expression levels of the marker genes (GATA4, Nkx2.5, cTnI)",[2]; 20 hours after the treatment,remarkably increased
same,"intracellular gene expression of three cardiomyocyte-specific markers (GATA4, Nkx2.5, and cTnI)",[2]; incubation 4 or 20 hours,significantly increased
same,"expression of GATA4 and cTnI, cardiomyocyte-specific proteins",[3],increase in the expression
